Results as given in patent publication US20170216252A1, “ANTI-BACTERIAL PYRUVATE KINASE MODULATOR COMPOUNDS, COMPOSITIONS, USES AND METHODS” (SIMON FRASER UNIVERSITY, priority 2014, published 2017).
Converted amounts (≈) assume the structure as drawn. Where two headings read alike, the source gives them in different places.

Legend:
S. aureus ATCC 29213 = assay: In vitro susceptibility, broth microdilution MIC; assay type: cell-based, Staphylococcus aureus
Summary of the method: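 The MIC against S. aureus 29213 was determined by CLSI 2-fold serial broth microdilution in Mueller Hinton broth. Plates were incubated for 18–24 h at 37 °C and read at OD600 with background subtracted. The MIC was the lowest concentration giving complete growth inhibition versus compound-free wells.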

MRSA PK = target: T1, MRSA PK (Staphylococcus aureus, UniProt Q6GG09); assay: MRSA PK activity, continuous LDH-coupled assay; assay type: biochemical, S. aureus (MRSA strain Sanger 252)
T1 construct: His tag (pET-28a(+) vector) (N); made in house; host or cells: E. coli BL-21 (DE3)
Summary of the method: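 Purified His-tagged MRSA PK (15 nM, E. coli-expressed) started reactions run up to 5 min at 30 °C. Activity was followed continuously by LDH-coupled NADH oxidation at 340 nm, with DMSO ≤1%. IC50 came from four-parameter variable-slope fits.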

[1] = Staphylococcus aureus, ATCC29213, Table 8, tested at least in duplicate, differing values all given, read-out: MIC
[2] = Staphylococcus aureus, ATCC29213, Tables 1-6 and text, minimum concentration to give >98% inhibition of growth, read-out: MIC
[3] = Table 8, tested at least in duplicate, differing values all given
[4] = Tables 1-6, 2 mM ADP, 10 mM PEP, 15 nM PK, read-out: IC50

T1 sequence (Q6GG09 whole entry): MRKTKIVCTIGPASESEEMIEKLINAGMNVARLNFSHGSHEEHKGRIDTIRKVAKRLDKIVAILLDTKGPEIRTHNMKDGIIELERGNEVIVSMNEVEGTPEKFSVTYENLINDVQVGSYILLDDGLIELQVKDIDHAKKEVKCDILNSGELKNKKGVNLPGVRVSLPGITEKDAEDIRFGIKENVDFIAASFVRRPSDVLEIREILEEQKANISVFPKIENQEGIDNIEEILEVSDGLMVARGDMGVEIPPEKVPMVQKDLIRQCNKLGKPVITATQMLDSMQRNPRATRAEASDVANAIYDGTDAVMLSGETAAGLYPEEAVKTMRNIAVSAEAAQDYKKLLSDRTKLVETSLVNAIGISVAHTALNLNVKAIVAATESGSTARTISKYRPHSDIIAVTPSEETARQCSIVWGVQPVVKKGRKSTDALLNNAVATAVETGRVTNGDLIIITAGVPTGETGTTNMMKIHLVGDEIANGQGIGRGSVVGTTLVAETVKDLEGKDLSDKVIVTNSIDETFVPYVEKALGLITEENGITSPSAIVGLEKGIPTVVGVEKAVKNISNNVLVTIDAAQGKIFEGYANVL

Row | Structure (SMILES) | MIC (S. aureus ATCC 29213; [1]) | IC50 (MRSA PK) | also measured
1 | Clc1ccc(/C=C/c2cc3ccc(Br)cc3[nH]2)cn1 [Compound 98, (E)-6-Bromo-2-(2-(6-chloropyridin-3-yl)vinyl)-1H-indole] | > 64 mg/L | < 0.05 µM | 
2 | O=C(Nc1ccc(Br)cc1)c1[nH]c2cc(Br)ccc2c1C(=O)O [Compound 132, 6-Bromo-2-((4-bromophenyl)carbamoyl)-1H-indole-3-carboxylic acid] | 16 mg/L (≈ 36.5 µM) | < 0.05 µM | 
3 | O=C(O)c1c(/C=C/c2ccc(Br)cn2)[nH]c2cc(Br)ccc12 [Compound 153, (E)-6-Bromo-2-(2-(5-bromopyridin-2-yl)vinyl)-1H-indole-3-carboxylic acid] | 32 mg/L (≈ 75.8 µM) | 0.1 to 1 µM | 
4 | FC(F)(F)c1ccc(/C=C/c2cc3ccc(Br)cc3[nH]2)cc1 [Compound 102, (E)-6-Bromo-2-(4-(trifluoromethyl)styryl)-1H-indole] | 64 mg/L (≈ 175 µM) | 0.1 to 1 µM | 
5 | COC(=O)c1c(C(=O)Nc2ccc(Cl)cc2)[nH]c2cc(Br)ccc12 [Compound 130, Methyl 6-bromo-2-((4-chlorophenyl)carbamoyl)-1H-indole-3-carboxylate] | > 64 mg/L | < 0.05 µM | 
6 | COC(=O)c1cc(Br)cc2[nH]c(/C=C/c3ccc(Cl)cc3)cc12 [Compound 157, (E)-Methyl 6-bromo-2-(4-chlorostyryl)-1H-indole-4-carboxylate] | > 64 mg/L | > 1 µM | 
7 | O=C(Nc1ccc(Cl)cc1)c1cc2ccc(Br)cc2[nH]1 [Compound 128, 6-bromo-N-(4-chlorophenyl)-1H-indole-2-carboxamide] | > 64 mg/L | 0.017 µM | 
8 | Clc1cc(Cl)cc(CCc2cc3ccc(Br)cc3[nH]2)c1 [Compound 119, 6-Bromo-2-(3,5-dichlorophenethyl)-1H-indole] | > 64 mg/L | > 100 µM | 
9 | O=C(Nc1ccc(Br)cc1)c1cc2ccc(Br)cc2[nH]1 [Compound 63, 6-Bromo-N-(4-bromophenyl)-1H-indole-2-carboxamide] |  | 0.0097 µM | MIC (S. aureus ATCC 29213; [2]): > 64 mg/L
10 | Clc1ccc(CCc2nc3ccc(Br)cc3[nH]2)cc1 [Compound 154, 6-bromo-2-(4-chlorophenethyl)-1H-benzo[d]imidazole] | 16 mg/L (≈ 47.7 µM) | > 1 µM | MIC (S. aureus ATCC 29213; [3]): 32 mg/L (≈ 95.3 µM)
11 | O=C(O)c1cc(Br)cc2[nH]c(/C=C/c3ccc(Cl)cc3)cc12 [Compound 158, (E)-6-Bromo-2-(4-chlorostyryl)-1H-indole-4-carboxylic acid] | 32 mg/L (≈ 85 µM) | > 1 µM | 
12 | O=C(O)c1c(/C=C/c2cc(Cl)cc(Cl)c2)[nH]c2cc(Br)ccc12 [Compound 150, (E)-6-Bromo-2-(3,5-dichlorostyryl)-1H-indole-3-carboxylic acid] | 8 mg/L (≈ 19.5 µM) | > 1 µM | 
13 | Clc1cccc(/C=C/c2cc3ccc(Br)cc3[nH]2)c1 [Compound 96, (E)-6-Bromo-2-(3-chlorostyryl)-1H-indole] | > 64 mg/L | 0.1 to 1 µM | 
14 | O=C(c1c(-c2cc3ccccc3[nH]2)[nH]c2cc(Br)ccc12)C(F)(F)F [Compound 177, 1-(6-bromo-1H,1′H-[2,2′-biindol]-3-yl)-2,2,2-trifluoroethan-1-one] | 2 mg/L (≈ 4.91 µM) | > 1 µM | MIC (S. aureus ATCC 29213; [3]): 1 mg/L (≈ 2.46 µM)
15 | O=C(Nc1nc2ccc(Br)cc2[nH]1)c1cc2cc(Br)ccc2[nH]1 [Compound 79, 5-bromo-N-(6-bromo-1H-benzo[d]imidazol-2-yl)-1H-indole-2-carboxamide] |  | 0.0035 µM | MIC (S. aureus ATCC 29213; [2]): > 64 mg/L
16 | Clc1ccc(NCc2cc3ccc(Br)cc3[nH]2)cc1 [Compound 147, N-((6-Bromo-1H-indol-2-yl)methyl)-4-chloroaniline] | > 64 mg/L |  | EC50 (MRSA PK): 0.244 µM
17 | O=C(Nc1cccc(Br)c1O)c1cc2ccc(Br)cc2[nH]1 [Compound 64, 6-Bromo-N-(3-bromo-2-hydroxyphenyl)-1H-indole-2-carboxamide] |  |  | MIC (S. aureus ATCC 29213; [2]): > 64 mg/L; IC50 (MRSA PK; [4]): 0.116 µM
18 | CC(=O)c1c(-c2cc3ccccc3[nH]2)[nH]c2cc(Br)ccc12 [Compound 91, 1-(6-bromo-1H,1′H-[2,2′-biindol]-3-yl)ethan-1-one] |  | 0.0077 µM | MIC (S. aureus ATCC 29213; [2]): 4 mg/L (≈ 11.3 µM)
19 | O=C(c1c(/C=C/c2ccc(Cl)cc2)[nH]c2cc(Br)c(F)cc12)C(F)(F)F [Compound 175, (E)-1-(6-Bromo-2-(4-chlorostyryl)-5-fluoro-1H-indol-3-yl)-2,2,2-trifluoroethanone] | 2 mg/L (≈ 4.48 µM) | 0.1 to 1 µM | 
20 | Cn1c(C#Cc2cc3ccc(Br)cc3[nH]2)cc2ccc(Br)cc21 [Compound 26a, 6-bromo-2-((6-bromo-1H-indol-2-yl)ethynyl)-1-methyl-1H-indole] |  |  | MIC (S. aureus ATCC 29213; [2]): > 64 mg/L; IC50 (MRSA PK; [4]): 0.0137 µM
21 | Oc1ccc(Br)cc1-c1ccnc(-c2cc3ccc(Br)cc3[nH]2)c1 [Compound 86, 4-bromo-2-(2-(6-bromo-1H-indol-2-yl)pyridin-4-yl)phenol] |  |  | MIC (S. aureus ATCC 29213; [2]): > 64 mg/L; inhibition at 10 µM (MRSA PK; read-out: % inhibition at the highest concentration tested (IC50)): 62%
